This passage reports Kd results from paper PMC9098524, “Structural basis of ion – substrate coupling in the Na^+-dependent dicarboxylate transporter VcINDY” (Nature Communications, 2022).

Structures are written as SMILES.

This experiment deals with T1, VcINDY (Vibrio cholerae, UniProt Q9KNE0).
T1 construct: gene VC_A0025
Kind of experiment: intrinsic tryptophan fluorescence quenching ([…] nm excitation, […] nm emission), quadratic binding fit. The following applies: read-out: apparent Kd.

Take `O=C(O)CCC(=O)O` [succinate]: the Kd was 92.2 ± 47.4 µM.
